According to patent US20180099931A1 (AbbVie S.à.r.l., priority 2016, published 2018):
pEC50: −log10 of the molar value. Read-outs that look alike come from different tables or passages of the source.

Biological target: T1, F508delCFTR (Homo sapiens, UniProt P13569, DEL508-508)
T1 construct: expressed in transfected cells; host or cells: CFBE41o- human lung-derived epithelial cells (CFBE4lo-F508delCFTR-HRP), doxycycline-inducible
Test: Cell Surface Expression-Horse Radish Peroxidase (CSE-HRP) Assay;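 on Maximum % activity (with co-corrector): co-corrector and positive control are both the same reference corrector at 2 µM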;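 on Maximum % activity (without co-corrector): percent of the 2 µM on-plate positive control corrector response above DMSO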
Format: cell-based
Details: for Emax / Maximum % activity (with co-corrector): maximum at any tested concentration, normalized to on-plate positive control; for Emax: read-out: Maximum % activity (without co-corrector); for Maximum % activity (with co-corrector): with co-corrector (2 μM)

[1] = test compound without co-corrector
[2] = test compound without co-corrector, read-out: EC50 (without co-corrector)
[3] = with co-corrector (2 μM of 3-[(2R,4R)-4-({[1-(2,2-difluoro-1,3-benzodioxol-5-yl)cyclopropyl]carbonyl}amino)-7-methoxy-3,4-dihydro-2H-chromen-2-yl]benzoic acid), read-out: EC50 (with co-corrector)

T1 sequence (P13569 with tags, fused parts or gaps DEL508-508): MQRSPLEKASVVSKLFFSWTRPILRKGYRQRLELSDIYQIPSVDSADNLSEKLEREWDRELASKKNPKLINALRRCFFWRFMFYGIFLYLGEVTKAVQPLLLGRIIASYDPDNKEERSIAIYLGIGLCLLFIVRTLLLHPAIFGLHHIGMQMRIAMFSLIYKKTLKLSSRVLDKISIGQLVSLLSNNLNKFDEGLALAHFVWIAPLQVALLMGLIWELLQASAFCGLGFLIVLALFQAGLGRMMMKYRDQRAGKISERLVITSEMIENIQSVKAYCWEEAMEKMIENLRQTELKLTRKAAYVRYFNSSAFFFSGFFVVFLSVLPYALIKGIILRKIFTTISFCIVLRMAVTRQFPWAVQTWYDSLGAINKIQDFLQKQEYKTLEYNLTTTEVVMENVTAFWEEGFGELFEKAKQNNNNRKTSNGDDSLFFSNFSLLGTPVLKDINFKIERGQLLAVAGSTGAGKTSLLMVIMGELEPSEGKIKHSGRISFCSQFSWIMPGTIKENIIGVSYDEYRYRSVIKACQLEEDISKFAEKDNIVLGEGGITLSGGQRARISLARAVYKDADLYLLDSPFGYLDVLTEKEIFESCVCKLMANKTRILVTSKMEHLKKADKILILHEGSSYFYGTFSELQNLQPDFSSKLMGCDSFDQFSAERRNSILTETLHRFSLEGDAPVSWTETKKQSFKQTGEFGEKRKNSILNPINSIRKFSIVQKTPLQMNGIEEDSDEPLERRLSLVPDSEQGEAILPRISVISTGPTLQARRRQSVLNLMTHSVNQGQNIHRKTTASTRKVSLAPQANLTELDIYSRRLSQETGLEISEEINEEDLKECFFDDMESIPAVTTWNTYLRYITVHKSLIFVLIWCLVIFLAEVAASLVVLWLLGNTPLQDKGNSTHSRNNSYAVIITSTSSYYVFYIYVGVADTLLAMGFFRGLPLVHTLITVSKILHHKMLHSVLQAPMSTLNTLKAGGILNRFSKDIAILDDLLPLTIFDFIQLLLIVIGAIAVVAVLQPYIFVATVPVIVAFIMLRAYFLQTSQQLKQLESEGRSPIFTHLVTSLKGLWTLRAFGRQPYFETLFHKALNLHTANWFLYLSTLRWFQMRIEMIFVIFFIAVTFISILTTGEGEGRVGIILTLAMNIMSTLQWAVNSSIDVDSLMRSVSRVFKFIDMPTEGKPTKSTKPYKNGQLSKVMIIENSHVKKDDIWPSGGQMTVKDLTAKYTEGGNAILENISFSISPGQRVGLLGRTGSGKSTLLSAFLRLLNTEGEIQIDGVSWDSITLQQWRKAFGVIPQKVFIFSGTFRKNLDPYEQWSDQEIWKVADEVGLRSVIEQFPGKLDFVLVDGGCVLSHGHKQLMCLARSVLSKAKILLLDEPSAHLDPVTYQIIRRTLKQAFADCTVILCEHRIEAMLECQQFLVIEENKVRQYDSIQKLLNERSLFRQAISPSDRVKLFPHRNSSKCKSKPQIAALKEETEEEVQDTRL

| Compound | Emax [1] [%] | pEC50 [2] | pEC50 [3] | Maximum % activity (with co-corrector) |
| --- | --- | --- | --- | --- |
| COc1cc(C(F)(F)F)ccc1CN[C@@H]1[C@@H](C(C)(C)C)[C@H](C(=O)O)N(C(=O)[C@@H](OC)c2ccccc2)[C@@H]1c1ccccc1 [III-101] | < 100 | < 5.00 | 5.00 to 6.00 | ++ (≥150 and <350) |
| COc1ccc(C(F)(F)F)cc1CN[C@@H]1[C@@H](C(C)(C)C)[C@H](C(=O)O)N(C(=O)[C@](OC)(c2ccccc2)C(F)(F)F)[C@@H]1c1ccccc1 [III-102] | < 100 | < 5.00 | 5.00 to 6.00 | ++ (≥150 and <350) |
| CO[C@H](C(=O)N1[C@H](C(=O)O)[C@@H](C(C)(C)C)[C@H](Nc2cc(C(F)(F)F)cc(C)n2)[C@@H]1c1ccccc1)c1ccccc1 [III-103] | < 100 | < 5.00 | 5.00 to 6.00 | + (<150) |
| COc1cc(C(F)(F)F)ccc1CN[C@@H]1[C@@H](C(C)(C)C)[C@H](C(=O)O)N(C(=O)[C@H]2CCCCO2)[C@@H]1c1ccccc1 [III-117] | < 100 | < 5.00 | 5.00 to 6.00 | ++ (≥150 and <350) |
| COc1ccc(Br)cc1CN[C@H]1[C@H](C(C)(C)C)[C@@H](C(=O)O)N(C(=O)C2CCCCC2)[C@H]1c1ccccc1 [III-118] | > 200 | > 6.00 | > 6.00 | +++ (≥350) |
| COc1cc2c(cc1CN[C@H]1[C@H](C(C)(C)C)[C@@H](C(=O)O)N(C(=O)C3CCCCC3)[C@H]1c1ccccc1)C(C)(C)CCC2(C)C [III-119] | 100 to 200 | > 6.00 | > 6.00 | +++ (≥350) |
| CC(C)(C)[C@H]1[C@H](NCc2ccc3c(c2)CCCO3)[C@H](c2ccccc2)N(C(=O)C2CCCCC2)[C@@H]1C(=O)O [III-120] | < 100 | < 5.00 | 5.00 to 6.00 | ++ (≥150 and <350) |
| CC(C)(C)[C@H]1[C@H](NCc2ccc(C#N)cc2F)[C@H](c2ccccc2)N(C(=O)C2CCCCC2)[C@@H]1C(=O)O [III-121] | < 100 | < 5.00 | 5.00 to 6.00 | ++ (≥150 and <350) |
| CC(C)(C)[C@H]1[C@H](NCc2ccc3c(c2)CCO3)[C@H](c2ccccc2)N(C(=O)C2CCCCC2)[C@@H]1C(=O)O [III-122] | < 100 | < 5.00 | 5.00 to 6.00 | ++ (≥150 and <350) |
| CC(C)(C)[C@H]1[C@H](NCc2ccc(F)cc2C(F)(F)F)[C@H](c2ccccc2)N(C(=O)C2CCCCC2)[C@@H]1C(=O)O [III-123] | < 100 | > 6.00 | > 6.00 | ++ (≥150 and <350) |
| CC(C)Oc1ccc(Cl)cc1CN[C@H]1[C@H](C(C)(C)C)[C@@H](C(=O)O)N(C(=O)C2CCCCC2)[C@H]1c1ccccc1 [III-124] | < 100 | 5.00 to 6.00 | > 6.00 | +++ (≥350) |
| CC(C)(C)[C@H]1[C@H](NCc2ccc(F)c(C#N)c2)[C@H](c2ccccc2)N(C(=O)C2CCCCC2)[C@@H]1C(=O)O [III-125] | < 100 | < 5.00 | 5.00 to 6.00 | ++ (≥150 and <350) |
| COc1ccc(CN[C@H]2[C@H](C(C)(C)C)[C@@H](C(=O)O)N(C(=O)C3CCCCC3)[C@H]2c2ccccc2)cc1Cl [III-126] | < 100 | 5.00 to 6.00 | 5.00 to 6.00 | ++ (≥150 and <350) |
| CC(C)(C)[C@H]1[C@H](NCc2ccc(F)cc2C#N)[C@H](c2ccccc2)N(C(=O)C2CCCCC2)[C@@H]1C(=O)O [III-127] | < 100 | < 5.00 | < 5.00 | + (<150) |
| CC(C)(C)[C@H]1[C@H](NCc2ccc(OC(F)(F)F)c(F)c2)[C@H](c2ccccc2)N(C(=O)C2CCCCC2)[C@@H]1C(=O)O [III-128] | < 100 | < 5.00 | 5.00 to 6.00 | ++ (≥150 and <350) |
| CC(C)(C)[C@H]1[C@H](NCc2ccc3c(c2)OCCCO3)[C@H](c2ccccc2)N(C(=O)C2CCCCC2)[C@@H]1C(=O)O [III-129] | < 100 | < 5.00 | 5.00 to 6.00 | ++ (≥150 and <350) |
| CC(C)(C)[C@H]1[C@H](NCc2ccc(Cl)c(Cl)c2)[C@H](c2ccccc2)N(C(=O)C2CCCCC2)[C@@H]1C(=O)O [III-130] | < 100 | < 5.00 | 5.00 to 6.00 | ++ (≥150 and <350) |
